Test results reported in US5928933A, “Process for the enzymatic resolution of N-(alkoxycarbonyl)-4-ketoproline alkyl esters or N-(alkoxycarbonyl)-4-hydroxyproline alkyl esters using Candida antarctica lipase B” (priority 1998, dated 1999).
Where two headings read alike, the source gives them in different places.

Molecular target: T1, Candida antartica lipase fraction B (CALB) (Moesziomyces antarcticus, UniProt P41365)
T1 construct: purchased Boehringer Mannheim CHIRAZYME L-2
T1 sequence (P41365 26-342): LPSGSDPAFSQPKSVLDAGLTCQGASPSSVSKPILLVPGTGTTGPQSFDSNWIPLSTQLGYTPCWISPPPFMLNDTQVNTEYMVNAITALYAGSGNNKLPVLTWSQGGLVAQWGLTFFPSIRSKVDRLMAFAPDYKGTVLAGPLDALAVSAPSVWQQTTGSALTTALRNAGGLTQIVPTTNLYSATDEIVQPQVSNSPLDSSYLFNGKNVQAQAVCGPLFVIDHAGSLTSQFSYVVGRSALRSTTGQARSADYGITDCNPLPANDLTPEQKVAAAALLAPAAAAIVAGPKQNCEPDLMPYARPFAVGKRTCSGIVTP
Format: biochemical
Details: for resolution with high enantioselectivity: CALB or any of the other commercially-available esterases, lipases, and proteases screened (Examples 7, 8); for isomer remaining: candida antartica lipase b, 19000 µM, pH 5
Procedure: Reacting a 0.10M solution of the 1:1 mixture of KDP(MEMC) and KLP(MEMC) in 0.20M succinate (pH 6.0) at 25° C. for 5 h with approximately 1-3 mg/mL of Candida antartica lipase fraction B (CALB) produced a 95% ee (substrate) of KDP(MEMC) at 51% conversion. […] The calculated enantioselectivity (E) at 51% conversion was E=81.
The enzymatic hydrolysis reaction of KDP(MEMC) and KLP(MEMC) using CALB (described above) was repeated at pH 5.0 in 0.20M acetate buffer (Example 2), and a 100% ee (substrate) of the D-isomer was obtained at 51% conversion (E=>1000); the reaction rate was approximately 50% of the rate at pH 6.0, and the slight loss of the D-isomer at pH 5.0 was again observed in the absence of added enzyme (95% recovery at pH 5.0 after 24 h with no enzyme).
The procedure described in Example I was repeated using Candida antartica lipase fraction B (CALB), except that the reaction was run in 0.200M sodium cetate (pH 5.0) instead of the 0.20M sodium succinate buffer (pH 6.0) used for Candida antartica lipase fraction B in Example 1. Aqueous solutions (5.0 mL) containing varying concentrations of a racemic mixture of N-(methoxycarbonyl)-4-keto-D,L-proline methyl ester and CALB were mixed at 15° C., 25° C., 35° C. or 45° C.
An aqueous solution (5.0 mL) containing 25 mM N-(methoxycarbonyl)-4-keto-Dproline methyl ester and 25 mM N-(methoxycarbonyl)-4-keto-L-proline methyl ester in 0.200M sodium acetate (pH 5.0) was mixed with 2.5 g of immobilized Candida antartica lipase fraction B (Boehringer Mannheim, CHIRAZYME® L-2, c.-f., C2, lyo.) at 25° C. […] The dichloromethane extract was then analyzed by chiral gas chromatography on a Chiraldex G-TA column (Advanced Separation Technologies, Inc., 50 m×0.32 mm ID) to determine the amounts of the unreacted D- and L-isomers. After 31 h, an 85% enantiomeric excess of N-(methoxycarbonyl)-4-keto-D-proline methyl ester was obtained at 41% conversion of the racemic mixture.
A 200 mL aqueous solution containing 0.200M sodium acetate (pH 5.0), 1.3325 g of Candida antartica lipase fraction B, and 4.02 g of racemic N-(methoxycarbonyl)-4-keto-D,L-proline methyl ester (100 mM) was stirred at 25° C. After 24 h, an 96% enantiomeric excess of N-(methoxycarbonyl)-4-keto-D-proline methyl ester was obtained at 50% conversion of the racemic mixture. The reaction mixture was filtered using a 10,000 MWCO membrane filter (Amicon) to remove the enzyme catalyst, and the filtrate extracted with three 200 mL portions of dichloromethane. The combined organic extracts were dried over magnesium sulfate, filtered, and the dichloromethane removed from the filtrate by rotary evaporation at reduced pressure. Residual dichloromethane was removed from the resulting colorless oil at high vacuum (50 millitorr) to produce N-(methoxycarbonyl)-4-keto-D-proline methyl ester as a white solid (1.99 g, 99% isolated yield, 99% purity (by GC), 97% ee).
An aqueous solution (2.0 mL) containing 50 mM N-(ethoxycarbonyl)-4-keto-D-proline ethyl ester and 50 mM N-(ethoxycarbonyl)-4-keto-L-proline ethyl ester in 0.200M sodium acetate (pH 5.0) and 30 mg/mL of Candida antartica lipase fraction B was mixed at 25° C. […] The dichloromethane extract was then analyzed by chiral gas chromatography on a Chiraldex G-TA column (Advanced Separation Technologies, Inc., 50 m×0.32 mm ID) to determine the amounts of the unreacted D- and L-isomers. After 24 h, a 100% enantiomeric excess of N-(ethoxycarbonyl)-4-keto-D-proline ethyl ester was obtained at 51% conversion of the racemic mixture.
An aqueous solution (1.0 mL) containing 19 mM of N-(2-phenylacetyl)-4-keto-D-proline methyl ester and 19 mM of N-(2-phenylacetyl)-4-keto-L-proline methyl ester in 0.200M sodium acetate (pH 5.0) and 25 mg/mL of Candida antartica lipase fraction B was mixed at 25° C. […]

[1] = 0.10M 1:1 mixture, 0.20M succinate pH 6.0, 25° C., 5 h, approximately 1-3 mg/mL CALB
[2] = 100 mM racemate, 10 mg/mL CALB, 25° C., 24 h, pH 5.0
[3] = 100 mM racemate, 20 mg/mL CALB, 45° C., 6 h, pH 5.0
[4] = 200 mM racemate, 6.7 mg/mL CALB, 35° C., 29 h, pH 5.0
[5] = 300 mM racemate, 31 mg/mL CALB, 45° C., 23 h, pH 5.0
[6] = 200 mL, 100 mM racemate, 1.3325 g CALB, pH 5.0, 25° C., 24 h
[7] = immobilized CALB 2.5 g in 5.0 mL, 25 mM each isomer, pH 5.0, 25° C., 31 h
[8] = 50 mM each isomer, 30 mg/mL CALB, pH 5.0, 25° C., 24 h
[9] = 19 mM each isomer, 25 mg/mL CALB, pH 5.0, 25° C., 28 h

COC(=O)C1CC(=O)CN1C(=O)OC (racemic) [N-(methoxycarbonyl)-4-keto-D,L-proline methyl ester]
conversion [1]: 51%
ee (substrate) of KDP(MEMC) [1]: 95%
ee D-isomer [2]: 100%
racemate conv. [2]: 51%
ee D-isomer (100 mM racemate, 20 mg/mL CALB, 15° C., 24 h, pH 5.0): 100%
racemate conv. (100 mM racemate, 20 mg/mL CALB, 15° C., 24 h, sodium acetate pH 5.0): 51%
ee D-isomer [3]: 100%
racemate conv. [3]: 50%
conversion (0.20M acetate buffer pH 5.0): 51%
ee (substrate) of the D-isomer (0.20M acetate buffer pH 5.0): 100%
ee D-isomer [4]: 97%
racemate conv. [4]: 51%
ee D-isomer [5]: 99%
racemate conv. [5]: 48%
conversion of the racemic mixture [6]: 50%
enantiomeric excess of the D-isomer [6]: 96%
enantioselectivity (E) (at 51% conversion, pH 5.0): > 1000
calculated enantioselectivity (E) (at 51% conversion, pH 6.0): 81
conversion of the racemic mixture [7]: 41%
enantiomeric excess of the D-isomer [7]: 85%
reaction rate relative to the rate at pH 6.0 (pH 5.0): approximately 50%

COC(=O)C1CC(OC)(OC)CN1C(=O)OC (racemic) [N-(methoxycarbonyl)-4,4-dimethoxy-D,L-proline methyl ester]
resolution with high enantioselectivity: could not be resolved with high enantioselectivity

COC(=O)[C@H]1CC(=O)CN1C(=O)Cc1ccccc1 [N-(2-phenylacetyl)-4-keto-D-proline methyl ester]
isomer remaining (28 h): 97%

COC(=O)[C@@H]1CC(=O)CN1C(=O)Cc1ccccc1 [N-(2-phenylacetyl)-4-keto-L-proline methyl ester]
isomer remaining (28 h): 28%

COC(=O)C1CC(=O)CN1C(C)=O (racemic) [N-(acetyl)-4-keto-D,L-proline methyl ester]
resolution with high enantioselectivity: could not be resolved with high enantioselectivity

CCOC(=O)C1CC(=O)CN1C(=O)OCC (racemic) [N-(ethoxycarbonyl)-4-keto-D,L-proline ethyl ester]
conversion of the racemic mixture [8]: 51%
enantiomeric excess of the D-isomer (KDP(EEEC)) [8]: 100%

COC(=O)C1CC(=O)CN1C(=O)Cc1ccccc1 (racemic) [N-(2-phenylacetyl)-4-keto-D,L-proline methyl ester]
conversion of the racemic mixture [9]: 38%
enantiomeric excess of the D-isomer [9]: 55%
